In patent US20070043108A1, “Use of equol for ameliorating or preventing neuropsychiatric and neurodegenerative diseases or disorders” (priority 2002, published 2007):
Values joined by “and” are separate entries in the source; they are usually repeats but may differ in a detail not shown here. Equal entries are not always repeated.

What was measured:
[1] = test system: Male Sprague-Dawley rats; assay: Example 1: prostate size and hormone secretion in intact male rats injected sc with racemic equol; assay type: in vivo, rat; conditions: intact males, 0.25 mg/kg sc 1/day for 4 days, vs control
Experimental: Male Sprague-Dawley rats (400-500 grams) are obtained from Charles Rivers Laboratories (Wilmington, Mass., USA). Rats are caged in pairs and maintained on a 12-hour dark 12-hour light schedule (lights on at 0700 h) with ad libitum access to food and water.
One week following arrival, animals are given subcutaneous (sc) injections (1/day for 4 days) of either dimethylsulfoxide (DMSO) (vehicle control) or racemic equol (0.25 mg/kg). Eighteen hours after the final injection, animals are killed via decapitation and trunk blood and prostate are collected for analysis.

[2] = Competition and binding studies of equol with other labelled steroids
[3] = test system: Long-Evans rats, male offspring; assay: Example 19: elevated plus maze of adult male offspring after pre- and early postnatal treatment; assay type: in vivo, rat; conditions: offspring tested at about 90 days
Experimental: Pregnant Long-Evans rats were treated via daily subcutaneous injections from gestational day 14 through 20 and during lactation from postnatal day 2 through 25 with: 1) control-DMSO vehicle or, 2) genistein@ 3 mg/day or 3) equol@ 3 mg/day according to the treatment groups. All animals were fed a phytoestrogen-low diet throughout these studies (10 ppm isoflavones). There were no significant differences in maternal body weights just before birth among the treatment groups. […] The maternal and male offspring genistein and equol levels @ 25 days post birth) paralleled that of the treatments administered.
At approximately 90 days of age the male offspring were tested by treatments (control, genistein and equol) in the EPM that was video-taped for 3 minutes and later recorded for the number of entries into—and the percentage of total time spent—on the open arms, as previously described. […] Equol time intervals were 2-fold greater than genistein values and genistein levels were approximately 9-fold greater than controls.

[4] = test system: adult Long-Evans male rats; conditions: equol-treated male rats vs control, previously reported in US 2005/0245492; cited from earlier work
[5] = test system: intact males; assay: Example 2: tissue weights from intact males given sc injections of racemic equol; assay type: in vivo, rat; conditions: sc once/day for 7 days
[6] = molecular target: T1, ERα (Rattus norvegicus, UniProt P06211); assay: Competition binding of equol enantiomers with [3H]E2 for in vitro translated ERα
T1 construct: Full length rat ERα expression vector (pcDNA-ERα; RH Price UCSF); made in house; host or cells: TnT-coupled rabbit reticulocyte lysate in vitro translation (Promega)
T1 sequence (P06211 1-600): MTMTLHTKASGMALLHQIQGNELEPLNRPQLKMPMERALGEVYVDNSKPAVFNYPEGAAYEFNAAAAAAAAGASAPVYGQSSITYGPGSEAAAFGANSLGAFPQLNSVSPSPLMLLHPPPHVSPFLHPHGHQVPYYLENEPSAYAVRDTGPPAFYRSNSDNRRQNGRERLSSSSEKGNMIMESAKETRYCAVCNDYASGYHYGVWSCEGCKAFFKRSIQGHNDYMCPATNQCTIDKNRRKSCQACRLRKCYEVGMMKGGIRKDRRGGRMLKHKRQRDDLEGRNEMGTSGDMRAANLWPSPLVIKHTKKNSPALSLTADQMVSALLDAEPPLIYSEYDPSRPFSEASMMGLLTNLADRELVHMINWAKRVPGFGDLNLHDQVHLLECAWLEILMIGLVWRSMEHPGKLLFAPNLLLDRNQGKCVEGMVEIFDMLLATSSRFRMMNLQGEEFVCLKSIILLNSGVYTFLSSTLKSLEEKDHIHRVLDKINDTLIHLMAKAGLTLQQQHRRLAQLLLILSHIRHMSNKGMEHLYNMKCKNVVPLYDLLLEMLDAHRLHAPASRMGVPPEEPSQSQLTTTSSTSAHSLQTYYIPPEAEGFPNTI
Experimental: In vitro binding studies were performed to examine the relative affinities of S— and R-enantiomeric equol with the estrogen receptors ERα and ERβ.
Synthesis of Hormone Receptor Proteins: Full length rat ERα expression vector (pcDNA-ERα; RH Price UCSF) and ERβ expression vector (pcDNA-ERβ; T A Brown, Pfizer, Groton, […].) were used to synthesize hormone receptors in vitro using the TnT-coupled reticulocyte lysate system (Promega, Madison, Wis.) with T7-RNA polymerase, during a 90 min reaction at 30° C. Translation reaction mixtures were stored at −80° C. until further use.
Saturation isotherms: In order to calculate and establish the binding affinity of the S-equol and R-equol enantiomers for ERα and ERβ, 100 μL aliquots of reticulocyte lysate supernatant were incubated at optimal time and temperature; 90 min at room temperature (ERβ) and 18 hrs at 4° C. (ERα), with increasing (0.01-100 nm) concentrations of [3H] […] These times were determined empirically and represent optimal binding of receptor with estrogen. Nonspecific binding was assessed using a 300-fold excess of the ER agonist diethylstilbestrol, in parallel tubes. Following incubation, bound and unbound [3H]E2 were separated by passing the incubation reaction through a 1 mL lipophilic Sephadex LH-20 (Sigma-Aldrich Co., Saint Louis, Mo.) column Columns were constructed by packing a disposable pipette tip (1 mL; Labcraft, Curtin Matheson Scientific, Inc, Houston, Tex.) with TEGMD (10 mm Tris-Cl, 1.5 mm EDTA, 10% glycerol, 25 mm molybdate, and 1 mm dithiothreitol, pH 7.4)-saturated Sephadex according to previously published protocols (Wanda et al., 1986; O'Keefe and Handa, 1990). For chromatography, the columns were re-equilibrated with TEGMD (100 μL), and the incubation reactions were added individually to each column and allowed to incubate on the column for an additional 30 min. Following this incubation, 600 μL of TEGMD were added to each column, flow-through was collected, 4 mL scintillation fluid was added, and samples were counted (5 min each) in an 2900 TR Packard scintillation counter (Packard Bioscience, Meriden, Conn.).
Competition binding studies were used to assess the estrogenic properties of equol's S-equol and R-equol enantiomers. Based on the ability of S and R to compete with [3H]

[7] = Bioavailability of R-equol after oral administration to a healthy adult; assay type: in vivo, human
Experimental: 20 mg of pure R-equol was administered orally to a healthy adult after an overnight fast. Blood samples were collected at timed intervals over the next 24 hours and the plasma concentration of equol was determined by isotope dilution gas chromatography-mass spectrometry with selected ion monitoring. Rapid appearance of equol is observed in the plasma with peak concentrations observed after 8 hours. The terminal elimination half-life of R-equol was approximately 8 hours.

binding to [3H]E2, [3H]T, [3H]DHEA, [3H]CORT and [3H]progesterone [2]	Pituitary (g) [5]	Testes (g) [5]	Compound	luteinizing hormone (LH) [1]	prostate weight [1]	entries into the open arms vs controls ([3]; 3 mg/day sc to dams)	time in the open arms vs controls ([3]; 3 mg/day sc to dams)	open arm time intervals, fold greater than genistein values [3]	5α-DHT [4]	prostate weight [4]	serum testosterone, luteinizing hormone (LH) or 17β-estradiol levels [4]	Body (g) [5]	Epididymis (g) [5]	Prostate (g) [5]	relative binding affinity for ERα compared with 17β-estradiol, fold less [6]	Kd ([6]; competition with [3H]E2, in vitro translated ER)	bioavailability ([7]; 20 mg orally)	time of peak plasma concentrations ([7]; 20 mg orally after overnight fast, healthy adult)	stability of the enantiomer in vivo (racemization, biotransformation) ([7]; equol in plasma by ESI-MS after 20 mg orally)	half-life ([7]; human, plasma, po, 20 mg orally, healthy adult, read-out: terminal elimination half-life (converted))
without any occurrences of binding	0.014 (±0.002) g	3.48 (±0.08) g	Oc1ccc(C2COc3cc(O)ccc3C2)cc1 (racemic) [equol, 7-hydroxy-3(4′hydroxyphenyl)-chroman]	significantly increased	significant reduction	significantly greater	significantly greater	2 fold	significant reductions	significant reductions	no alteration	418.0 (±7.52) g	1.59 (±0.06) g	0.38 (±0.06) g						
			Oc1ccc([C@@H]2COc3cc(O)ccc3C2)cc1 [R-equol]												210.6 fold and 211 fold	27.4 ± 3.8 nM	extremely bioavailable	8 h	does not undergo any racemization or further biotransformation in the intestine	~8 h
